Assay results from BindingDB's records for doi:10.7270/Q2PG1Q5Z (Broad Institute, 2010).
pEC50: −log10 of the molar value.

target: T1, Alkanal monooxygenase alpha chain (Vibrio harveyi, UniProt P07740); assay: inhibition of V. harveyi AI-2 signalling – luminescence, dose retest, Vibrio harveyi, confirmation (AID 2735)
T1 sequence (P07740 whole entry): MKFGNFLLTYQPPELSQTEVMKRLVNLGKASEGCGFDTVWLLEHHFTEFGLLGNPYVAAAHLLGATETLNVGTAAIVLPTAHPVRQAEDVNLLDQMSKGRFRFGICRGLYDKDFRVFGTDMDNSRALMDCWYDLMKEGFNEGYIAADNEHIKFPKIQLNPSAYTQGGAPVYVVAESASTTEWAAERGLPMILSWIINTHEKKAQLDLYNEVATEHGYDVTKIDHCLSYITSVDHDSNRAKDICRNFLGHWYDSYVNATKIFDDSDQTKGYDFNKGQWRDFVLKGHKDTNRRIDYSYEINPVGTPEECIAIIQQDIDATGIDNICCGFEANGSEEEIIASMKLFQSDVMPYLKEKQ

Row | SMILES | pEC50
1 | C=Cn1c(C(=O)O)ccc1-c1ccc(CC)cc1 | 4.59
2 | COc1cc(NC(=O)CN2C(=O)NC(c3ccccc3)(c3ccccc3)C2=O)cc(OC)c1 [MLS001176525] | 5.00
3 | CCc1ccc(S(=O)(=O)Nc2ccc(Br)cn2)cc1 [MLS001211346] | 4.74
4 | CCCc1ccc(S(=O)(=O)N(C)S(=O)(=O)c2ccc(F)cc2)cc1 [N-(4-fluorophenyl)sulfonyl-N-methyl-4-propylbenzenesulfonamide] | 5.05
5 | CN(C)S(=O)(=O)c1ccc(NC(=S)NC(=O)Cc2ccccc2)cc1 [N-[[4-(dimethylsulfamoyl)phenyl]carbamothioyl]-2-phenyl-ethanamide] | < 3.80
6 | Cc1cccc(NS(=O)(=O)c2ccc(Oc3ccccc3)cc2)n1 [SMR000071466] | 4.90
7 | Cn1cnc(S(=O)(=O)Nc2ccc(OC(F)(F)F)cc2)c1 [SMR000314513] | 4.61
